# From patent publication US5710135A, “Anthracycline prodrugs, method for preparation as well as their use in selective chemotherapy” (Pharmachemie B.V., priority 1995, dated 1998)
# Structures can show the parent of a compound that is named as a salt. Where two headings read alike, the source gives them in different places.
# Assays:
# [1] = test system: OVCAR-3 cells; experiment: Anti-proliferative effect on OVCAR-3 cells (sulforhodamine B protein dye stain); format: cell-based; details: Homo sapiens
# Description: The anti-proliferative effect of daunorubicin, doxorubicin and idarubicin, and of the prodrugs of examples 1 to 6 on OVCAR-3 cells was determined by measuring cell growth with a protein dye stain (H. J. Haisma et al. Br. J. Cancer 1992, 66, 474-478. Cells were harvested with 0.25 trypsin and 0.2% EDTA in PBS to obtain a single cell suspension and seeded in 96-wells tissue culture plates (2×10^6 cells/mL 10 μL/well, 3 wells per concentration). Drug or prodrug was added (10 μL/well) at different concentrations with a range of 3 or more logs. After incubation for 24 hours, 200 μL of culture medium (supplemented DMEM) was added and the cells were grown for another 72 hours. Cells were fixed with 25% trichloroacetic acid for 1 hour at 4° C. and washed with water. After staining the cells with 0.4% sulforhodamine B in 1% (v/v) acetic acid for 15 min. at room temperature, they were washed with 1% acetic acid and air-dried. The bound dye was solubilized with 10 mM unbuffered Tris and the absorbance was read at 492 nm. The absorbance was linear with cell concentrations from 1,000 to 200,000 cells/well. Separate wells were fixed 24 hours after seeding to substract background staining. The anti-proliferative effects were determined and expressed as IC50 values which are the (pro)drug concentrations that gave 50% growth inhibition when compared to control cell growth.
# [2] = target: T1, β-glucuronidase (Homo sapiens, UniProt P08236); experiment: Enzyme hydrolysis half-life with β-glucuronidase; format: biochemical; details: 100 μM prodrug, pH 6.8, 0.03 U/mL β-glucuronidase, 37° C.; read-out: T1/2 (min.) of enzyme hydrolysis
# T1 sequence (P08236 23-651): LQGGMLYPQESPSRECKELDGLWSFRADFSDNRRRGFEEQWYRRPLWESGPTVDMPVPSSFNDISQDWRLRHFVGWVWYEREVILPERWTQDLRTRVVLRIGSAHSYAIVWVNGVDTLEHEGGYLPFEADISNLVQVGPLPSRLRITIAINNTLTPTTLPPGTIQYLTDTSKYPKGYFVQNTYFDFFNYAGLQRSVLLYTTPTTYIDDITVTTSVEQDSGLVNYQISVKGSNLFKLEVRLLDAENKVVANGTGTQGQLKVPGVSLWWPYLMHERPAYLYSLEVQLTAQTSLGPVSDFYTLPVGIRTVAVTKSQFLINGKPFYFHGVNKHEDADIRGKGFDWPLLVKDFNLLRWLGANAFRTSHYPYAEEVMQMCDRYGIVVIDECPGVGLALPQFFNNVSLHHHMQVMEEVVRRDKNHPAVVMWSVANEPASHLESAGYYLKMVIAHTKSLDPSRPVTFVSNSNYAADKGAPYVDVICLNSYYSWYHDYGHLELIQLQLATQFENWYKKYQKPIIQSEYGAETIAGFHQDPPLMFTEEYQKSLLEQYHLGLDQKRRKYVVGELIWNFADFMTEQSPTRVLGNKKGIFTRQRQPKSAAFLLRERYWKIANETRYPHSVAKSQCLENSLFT
# Description: (§1) Half-lifes of enzyme hydrolysis were determined by incubating 100 μM prodrug at pH =6.8 with 0.03 U/mL β-glucuronidase or 0.3 U/mL β-glucosidase or β-galactosidase at 37° C.
# [3] = Enzyme hydrolysis half-life with β-glucosidase; format: biochemical; details: 100 μM prodrug, pH 6.8, 0.3 U/mL β-glucosidase, 37° C.; read-out: T1/2 (min.) of enzyme hydrolysis
# Description: as §1
# [4] = OVCAR-3 cells, 24 hours incubation with (pro)drug, then grown another 72 hours, read-out: IC50 (μM), (pro)drug concentration giving 50% growth inhibition
# [5] = OVCAR-3, read-out: IC50 (μM), (pro)drug concentration giving 50% growth inhibition
compound,measurement,setting,value
"COc1cccc2c1C(=O)c1c(O)c3c(c(O)c1C2=O)C[C@@](O)(C(C)=O)C[C@@H]3O[C@H]1C[C@H](NC(=O)OCc2ccccc2NC(=O)O[C@@H]2O[C@H](C(=O)O)[C@@H](O)[C@H](O)[C@H]2O)[C@H](O)[C@H](C)O1 [1a-ortho, N-[2-(daunorubicin-N-carbonyl-oxymethyl)phenyl] O-β-glucuronyl carbamate sodium salt]",IC50,[1]; [4],20 µM
same,half-life at 100 µM,[2],2.08 h
"COc1cccc2c1C(=O)c1c(O)c3c(c(O)c1C2=O)C[C@@](O)(C(C)=O)C[C@@H]3O[C@H]1C[C@H](NC(=O)OCc2ccc(NC(=O)O[C@@H]3O[C@H](C(=O)O)[C@@H](O)[C@H](O)[C@H]3O)cc2)[C@H](O)[C@H](C)O1 [1a-para, N-[4-(daunorubicin-N-carbonyl-oxymethyl)phenyl] O-β-glucuronyl carbamate sodium salt]",IC50,[1]; [4],22 µM
same,half-life at 100 µM,[2],2.25 h
"COc1cccc2c1C(=O)c1c(O)c3c(c(O)c1C2=O)C[C@@](O)(C(=O)CO)C[C@@H]3O[C@H]1C[C@H](NC(=O)OCc2ccc(NC(=O)O[C@@H]3O[C@H](C(=O)O)[C@@H](O)[C@H](O)[C@H]3O)cc2)[C@H](O)[C@H](C)O1 [1b-para, N-[4-(doxorubicin-N-carbonyl-oxymethyl)phenyl] O-β-glucuronyl carbamate sodium salt]",IC50,[1]; [4],> 10 µM
same,half-life at 100 µM,[2],2.83 h
"CC(=O)[C@]1(O)Cc2c(O)c3c(c(O)c2[C@@H](O[C@H]2C[C@H](NC(=O)OCc4ccc(NC(=O)O[C@@H]5O[C@H](C(=O)O)[C@@H](O)[C@H](O)[C@H]5O)cc4)[C@H](O)[C@H](C)O2)C1)C(=O)c1ccccc1C3=O [1c-para, N-[4-(idarubicin-N-carbonyl-oxymethyl)phenyl] O-β-glucuronyl carbamate sodium salt]",IC50,[1]; [4],> 1 µM
same,half-life at 100 µM,[2],2 h
"COc1cccc2c1C(=O)c1c(O)c3c(c(O)c1C2=O)C[C@@](O)(C(C)=O)C[C@@H]3O[C@H]1C[C@H](NC(=O)OCc2ccc(NC(=O)O[C@@H]3O[C@H](CO)[C@@H](O)[C@H](O)[C@H]3O)cc2)[C@H](O)[C@H](C)O1 [1d-para, N-[4-(daunorubicin-N-carbonyl-oxymethyl)phenyl] O-β-glucosyl carbamate]",IC50,[1]; [4],20 µM
same,half-life at 100 µM,[3],> 8.33 h
"COc1cccc2c1C(=O)c1c(O)c3c(c(O)c1C2=O)C[C@@](O)(C(C)=O)C[C@@H]3O[C@H]1C[C@H](N)[C@H](O)[C@H](C)O1 [12a, daunorubicin, reference compound]",IC50,[1]; [5],1.2 µM
"COc1cccc2c1C(=O)c1c(O)c3c(c(O)c1C2=O)C[C@@](O)(C(=O)CO)C[C@@H]3O[C@H]1C[C@H](N)[C@H](O)[C@H](C)O1 [12b, doxorubicin, reference compound]",IC50,[1]; [5],1 µM
"CC(=O)[C@]1(O)Cc2c(O)c3c(c(O)c2[C@@H](O[C@H]2C[C@H](N)[C@H](O)[C@H](C)O2)C1)C(=O)c1ccccc1C3=O [12c, idarubicin, reference compound]",IC50,[1]; [4],0.1 µM
